Laboratory results: PubChem BioAssay AID248 (DTP/NCI, 2004)
Values joined by “and” are separate entries in the source; they are usually repeats but may differ in a detail not shown here. Equal entries are not always repeated. Inconclusive results and toxic doses are left out. Rule as the data show it: active = T/C of 150% or more; inactive = T/C below 125%.

Test system: L1210 leukemia ip in BDF1 mice, survival T/C
Assay: NCI In Vivo Anticancer Drug Screen. Data for tumor model L1210 Leukemia (intraperitoneal) in B6D2F1 (BDF1) mice
Settings: endpoint: mean survival time, higher = longer survival
In short: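 Antitumor effect is assessed in tumor-bearing animals. Survival in the compound arm is compared with a vehicle-dosed control arm and expressed as their quotient.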

[1] = dose: 100.0 mg/kg/injection, schedule: Q01DX009 (ip), vehicle: Klucel (hydroxypropylcellulose) (HPC)
[2] = dose: 200.0 mg/kg/injection, schedule: Q01DX009 (ip), vehicle: Klucel (hydroxypropylcellulose) (HPC)
[3] = dose: 100.0 mg/kg/injection, schedule: Q01DX009 (ip), vehicle: saline with Tween-80
[4] = dose: 200.0 mg/kg/injection, schedule: Q01DX009 (ip), vehicle: saline with Tween-80
[5] = dose: 400.0 mg/kg/injection, schedule: Q01DX009 (ip), vehicle: saline with Tween-80
[6] = dose: 50.0 mg/kg/injection, schedule: Q01DX001 (ip), vehicle: Klucel (hydroxypropylcellulose) (HPC)
[7] = dose: 100.0 mg/kg/injection, schedule: Q01DX001 (ip), vehicle: Klucel (hydroxypropylcellulose) (HPC)
[8] = dose: 200.0 mg/kg/injection, schedule: Q01DX001 (ip), vehicle: Klucel (hydroxypropylcellulose) (HPC)
[9] = dose: 100.0 mg/kg/injection, schedule: Q04DX003 (ip), vehicle: saline with Tween-80
[10] = dose: 200.0 mg/kg/injection, schedule: Q04DX003 (ip), vehicle: saline with Tween-80
[11] = dose: 100.0 mg/kg/injection, schedule: Q04DX002 (ip), vehicle: saline with Tween-80
[12] = dose: 200.0 mg/kg/injection, schedule: Q04DX002 (ip), vehicle: saline with Tween-80
[13] = dose: 400.0 mg/kg/injection, schedule: Q04DX002 (ip), vehicle: saline with Tween-80
[14] = dose: 100.0 mg/kg/injection, schedule: Q04DX003 (ip), vehicle: saline
[15] = dose: 200.0 mg/kg/injection, schedule: Q04DX003 (ip), vehicle: saline
[16] = dose: 400.0 mg/kg/injection, schedule: Q04DX003 (ip), vehicle: saline

Measured: T/C

O=C(O)c1ccc2c(c1)OCO2
inactive: [1] 97 % of control | [2] 92 % of control | dose: 400.0 mg/kg/injection, schedule: Q01DX009 (ip), vehicle: Klucel (hydroxypropylcellulose) (HPC) 99 % of control

c1ccc2cc3nc4cc5ccccc5cc4nc3cc2c1
inactive: dose: 100.0 mg/kg/injection, schedule: Q01DX001 (ip), vehicle: acetone 95 % of control | [3] 93 % of control | dose: 200.0 mg/kg/injection, schedule: Q01DX001 (ip), vehicle: acetone 95 % of control | [4] 103 % of control | dose: 400.0 mg/kg/injection, schedule: Q01DX001 (ip), vehicle: acetone 92 % of control | [5] 87 % of control

O=C(O)c1cc2ccccc2c2c1ccc1ccccc12
inactive: [6] 92 % of control | [7] 93 % of control | [8] 93 % of control

Cc1ccnc(/C=N/NC(N)=S)c1
inactive: dose: 100.0 mg/kg/injection, schedule: Q04DX002 (ip), vehicle: saline 108 % of control | dose: 200.0 mg/kg/injection, schedule: Q04DX002 (ip), vehicle: saline 86 % of control

Fc1ccc(NC(=S)S)cc1
inactive: dose: 6.25 mg/kg/injection, schedule: Q04DX003 (ip), vehicle: saline with Tween-80 94 % of control | dose: 12.5 mg/kg/injection, schedule: Q04DX003 (ip), vehicle: saline with Tween-80 99 % of control | dose: 25.0 mg/kg/injection, schedule: Q04DX003 (ip), vehicle: saline with Tween-80 91 % of control

Nc1c[nH]c(=S)s1
inactive: [7] 94 % of control | [8] 99 % of control

CSc1cc(C)c(O)c(CO)c1
inactive: dose: 100.0 mg/kg/injection, schedule: Q01DX009 (ip), vehicle: other 92 % of control | dose: 200.0 mg/kg/injection, schedule: Q01DX009 (ip), vehicle: other 97 % of control | dose: 400.0 mg/kg/injection, schedule: Q01DX009 (ip), vehicle: other 92 % of control

O=C(CSc1cc(Cl)c(Cl)cc1Cl)Nc1cccc(Br)c1
inactive: dose: 50.0 mg/kg/injection, schedule: Q04DX003 (ip), vehicle: saline with Tween-80 94 % of control | [9] 87 % of control | [10] 96 % of control

Clc1ccc(Cl)c(-c2csc(-c3cccnc3)n2)c1
inactive: dose: 100.0 mg/kg/injection, schedule: Q01DX009 (ip), vehicle: saline 100 % of control | dose: 200.0 mg/kg/injection, schedule: Q01DX009 (ip), vehicle: saline 100 % of control | dose: 400.0 mg/kg/injection, schedule: Q01DX009 (ip), vehicle: saline 89 % of control

O=C(COC(=O)c1ccccc1)NCCCCc1ccccc1
inactive: dose: 100.0 mg/kg/injection, schedule: Q01DX001 (ip), vehicle: saline with Tween-80 100 % of control | [3] 105 % of control and 91 % of control | [11] 96 % of control | [9] 94 % of control | dose: 200.0 mg/kg/injection, schedule: Q01DX001 (ip), vehicle: saline with Tween-80 89 % of control | [4] 95 % of control and 100 % of control | [12] 99 % of control and 91 % of control | [10] 92 % of control | [5] 94 % of control and 95 % of control | [13] 93 % of control and 86 % of control

CSc1nc(C)c(NC(C)=O)c(=O)[nH]1
inactive: dose: 50.0 mg/kg/injection, schedule: Q01DX001 (ip), vehicle: saline 98 % of control | dose: 100.0 mg/kg/injection, schedule: Q01DX001 (ip), vehicle: saline 101 % of control | dose: 200.0 mg/kg/injection, schedule: Q01DX001 (ip), vehicle: saline 98 % of control | dose: 400.0 mg/kg/injection, schedule: Q01DX001 (ip), vehicle: saline 104 % of control

C[N+](C)(C)CCOC(=O)C1C2CC3OC(=O)C1C3C2 (stereo not given)
inactive: [14] 98 % of control | [15] 102 % of control | [16] 96 % of control

Cc1ccc(C)c(/C(=N\N=C(N)N)C2CC2)c1
inactive: dose: 15.0 mg/kg/injection, schedule: Q01DX Z (ip), vehicle: methylcellulose (MC) 103 % of control | dose: 30.0 mg/kg/injection, schedule: Q01DX Z (ip), vehicle: methylcellulose (MC) 99 % of control | dose: 30.0 mg/kg/injection, schedule: Q01DX Z (oral), vehicle: methylcellulose (MC) 103 % of control | dose: 60.0 mg/kg/injection, schedule: Q01DX Z (ip), vehicle: methylcellulose (MC) 100 % of control | dose: 60.0 mg/kg/injection, schedule: Q01DX Z (oral), vehicle: methylcellulose (MC) 94 % of control | dose: 120.0 mg/kg/injection, schedule: Q01DX Z (oral), vehicle: methylcellulose (MC) 100 % of control

O=C(/C=C/c1ccc(Cl)c(Cl)c1)C1CCC2CCCCC2C1 (stereo not given)
inactive: [3] 90 % of control | [11] 105 % of control | [4] 93 % of control | [12] 101 % of control | [5] 90 % of control | [13] 90 % of control

O=S(=O)(CBr)/C(Br)=C/c1ccccc1
inactive: dose: 50.0 mg/kg/injection, schedule: Q04DX002 (ip), vehicle: Klucel (hydroxypropylcellulose) (HPC) 97 % of control | dose: 100.0 mg/kg/injection, schedule: Q04DX002 (ip), vehicle: Klucel (hydroxypropylcellulose) (HPC) 94 % of control | dose: 200.0 mg/kg/injection, schedule: Q04DX002 (ip), vehicle: Klucel (hydroxypropylcellulose) (HPC) 103 % of control

C/C(CC(C)(C)c1ccccc1)=N/NC(N)=O
inactive: [1] 104 % of control | [2] 98 % of control

C[C@]12CC[C@H](O)C[C@H]1CC[C@@H]1[C@@H]2CC[C@]2(C)[C@@H](C3=CC(=O)OC3)[C@@H](O)C[C@]12O
inactive: dose: 50.0 mg/kg/injection, schedule: Q01DX001 (ip), vehicle: carboxymethylcellulose (CMC) 101 % of control | dose: 100.0 mg/kg/injection, schedule: Q01DX001 (ip), vehicle: carboxymethylcellulose (CMC) 107 % of control | dose: 200.0 mg/kg/injection, schedule: Q01DX001 (ip), vehicle: carboxymethylcellulose (CMC) 101 % of control | dose: 400.0 mg/kg/injection, schedule: Q01DX001 (ip), vehicle: carboxymethylcellulose (CMC) 102 % of control

Cc1cccc(NC#N)n1
inactive: dose: 25.0 mg/kg/injection, schedule: Q01DX001 (ip), vehicle: Klucel (hydroxypropylcellulose) (HPC) 100 % of control | [6] 98 % of control | [7] 98 % of control and 101 % of control

Cc1cccc(C)c1NC(=O)N(CCO)C1CCCCC1
inactive: [14] 102 % of control | [15] 112 % of control | [16] 104 % of control

C/C(=C\C(=N\NC(=N)N)c1ccccc1)c1ccccc1
inactive: dose: 1.87 mg/kg/injection, schedule: Q01DX Z (ip), vehicle: carboxymethylcellulose (CMC) 94 % of control | dose: 3.75 mg/kg/injection, schedule: Q01DX Z (ip), vehicle: carboxymethylcellulose (CMC) 97 % of control | dose: 7.5 mg/kg/injection, schedule: Q01DX Z (ip), vehicle: carboxymethylcellulose (CMC) 88 % of control | dose: 7.5 mg/kg/injection, schedule: Q01DX Z (oral), vehicle: carboxymethylcellulose (CMC) 108 % of control | dose: 15.0 mg/kg/injection, schedule: Q01DX Z (ip), vehicle: carboxymethylcellulose (CMC) 98 % of control | dose: 15.0 mg/kg/injection, schedule: Q01DX Z (oral), vehicle: carboxymethylcellulose (CMC) 106 % of control | dose: 30.0 mg/kg/injection, schedule: Q01DX Z (oral), vehicle: carboxymethylcellulose (CMC) 100 % of control | dose: 60.0 mg/kg/injection, schedule: Q01DX Z (oral), vehicle: carboxymethylcellulose (CMC) 108 % of control
